Source: ChEMBL document CHEMBL5029155, “Design, Synthesis, and Biological Evaluation of Stable Colchicine-Binding Site Tubulin Inhibitors 6-Aryl-2-benzoyl-pyridines as Potential Anticancer Agents” (J Med Chem, 2021)
Calls of active or inactive are those of the source. No cut-off for these calls is given here.

Legend:
[1] = molecular target: T1, CYP1A2 (description prints CYP1AA) (Homo sapiens, UniProt P05177); assay: Inhibition of […] in human liver microsomes using phenacetin as substrate at 10 uM; format: ADME; conditions: probe phenacetin
T1 sequence (P05177 whole entry): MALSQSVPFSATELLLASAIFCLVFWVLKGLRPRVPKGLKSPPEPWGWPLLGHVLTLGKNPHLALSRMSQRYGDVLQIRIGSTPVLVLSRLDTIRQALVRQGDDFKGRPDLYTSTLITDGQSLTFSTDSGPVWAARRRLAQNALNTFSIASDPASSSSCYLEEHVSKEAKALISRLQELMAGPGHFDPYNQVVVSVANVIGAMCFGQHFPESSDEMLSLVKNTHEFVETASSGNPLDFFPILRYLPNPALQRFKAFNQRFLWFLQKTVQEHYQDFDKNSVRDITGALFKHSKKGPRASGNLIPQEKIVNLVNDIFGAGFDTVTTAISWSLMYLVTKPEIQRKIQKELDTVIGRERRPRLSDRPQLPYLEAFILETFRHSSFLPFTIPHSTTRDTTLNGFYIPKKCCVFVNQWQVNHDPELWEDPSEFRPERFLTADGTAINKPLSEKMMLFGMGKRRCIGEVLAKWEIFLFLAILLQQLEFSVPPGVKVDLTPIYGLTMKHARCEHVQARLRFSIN

[2] = system: A375/TxR; assay: Induction of cell cycle arrest in human A375/TxR cells assessed as decrease in accumulation at S phase measured for 24 hrs by PI staining based flow cytometry analysis; format: functional
[3] = system: CYP3A; assay: Inhibition of CYP3A in human liver microsomes using testosterone as substrate at 10 uM; format: ADME; conditions: probe testosterone
[4] = Antitumor activity against human A375/TxR cells xenografted in SCID mouse assessed as reduction in tumor volume at 10 mg/kg, ip administered 3 times/week for 18 days; format: functional; set-up: scale not given: the % may be the effect or the level left; conditions: time 18 day
[5] = system: A375/TxR; assay: Induction of cell cycle arrest in human A375/TxR cells assessed as accumulation at G2/M phase measured for 24 hrs by PI staining based flow cytometry analysis; format: functional
[6] = system: Salmonella typhimurium; assay: Mutagenicity in Salmonella typhimurium TA98 by Ames test; format: toxicity, organism-based; conditions: salmonella enterica subsp. enterica serovar typhimurium
[7] = Systemic toxicity in human A375/TxR cells xenografted in SCID mouse tumor model assessed as pathological change in lungs at 10 to 20 mg/kg, ip by H and E staining based analysis; format: organism-based; conditions: in vivo, dose 10-20 mg/kg
[8] = Metabolic stability in mouse liver microsomes assessed as intrinsic clearance in presence of NADPH regenerating system by UPLC-MS analysis; format: ADME, Microsome; conditions: read-out: CLH
[9] = Metabolic stability in human liver microsomes assessed as half life in presence of NADPH regenerating system by UPLC-MS analysis; format: ADME, Microsome; conditions: microsomes
[10] = AUClast in NSG mouse at 10 mg/kg, ip; format: ADME, organism-based; set-up: time 0 - last, route intraperitoneal, dose 10 mg/kg; conditions: in vivo
[11] = system: A375/TxR; assay: Induction of cell cycle arrest in human A375/TxR cells assessed as decrease in accumulation at G1 phase measured for 24 hrs by PI staining based flow cytometry analysis; format: functional
[12] = system: M14; assay: Antiproliferative activity against human M14 cells assessed as cell growth inhibition incubated for 72 hrs by MTS assay; format: functional, cell-based; conditions: M14, 72 h
[13] = system: MDA-MB-231; assay: Cytotoxicity against human MDA-MB-231 cells measured after 72 hrs […]; format: functional, cell-based; conditions: MDA-MB-231, 72 h
[14] = Clearance in NSG mouse at 10 mg/kg, ip; format: ADME, organism-based; conditions: in vivo
[15] = Systemic toxicity in human A375/TxR cells xenografted in SCID mouse tumor model assessed as pathological change in spleen at 10 to 20 mg/kg, ip by H and E staining based analysis; format: organism-based; conditions: in vivo, dose 10-20 mg/kg
[16] = Metabolic stability in human liver microsomes assessed as intrinsic clearance in presence of NADPH regenerating system by UPLC-MS analysis; format: ADME, Microsome; conditions: read-out: CLH
[17] = Anticlonogenic activity against paclitaxel resistant human A-375 cells assessed as inhibition of colony formation at 5 nM treated for 7 days by crystal violet staining based microscopic analysis; format: functional, A375/TxR; set-up: scale not given: the % may be the effect or the level left; conditions: time 7 day
[18] = Induction of apoptosis in human A375/TxR cells assessed as apoptotic cells at 5 nM measured for 24 hrs by annexin VFITC /PI staining based analysis (reference value: […]); format: functional
[19] = system: M14; assay: Cytotoxicity against paclitaxel resistant human M14 cells measured after 72 hrs […]; format: functional, cell-based; conditions: M14, 72 h
[20] = Tmax in NSG mouse at 10 mg/kg, ip; format: ADME, organism-based; conditions: in vivo
[21] = system: MDA-MB-453; assay: Antiproliferative activity against human MDA-MB-453 cells assessed as cell growth inhibition incubated for 72 hrs by MTS assay; format: functional, cell-based; conditions: MDA-MB-453, 72 h
[22] = system: A375/TxR; assay: Antimetastatic activity against human A375/TxR cells xenografted in SCID mouse assessed as metastatic in lungs; format: functional
[23] = system: RPMI-7951; assay: Antiproliferative activity against human RPMI-7951 cells assessed as cell growth inhibition incubated for 72 hrs by MTS assay; format: functional, cell-based; conditions: RPMI-7951, 72 h
[24] = molecular target: CYP2C9 (Homo sapiens, UniProt P11712); assay: Inhibition of CYP2C9 in human liver microsomes using diclofenac as substrate at 10 uM; format: ADME; conditions: probe diclofenac
CYP2C9, sequence (P11712 whole entry): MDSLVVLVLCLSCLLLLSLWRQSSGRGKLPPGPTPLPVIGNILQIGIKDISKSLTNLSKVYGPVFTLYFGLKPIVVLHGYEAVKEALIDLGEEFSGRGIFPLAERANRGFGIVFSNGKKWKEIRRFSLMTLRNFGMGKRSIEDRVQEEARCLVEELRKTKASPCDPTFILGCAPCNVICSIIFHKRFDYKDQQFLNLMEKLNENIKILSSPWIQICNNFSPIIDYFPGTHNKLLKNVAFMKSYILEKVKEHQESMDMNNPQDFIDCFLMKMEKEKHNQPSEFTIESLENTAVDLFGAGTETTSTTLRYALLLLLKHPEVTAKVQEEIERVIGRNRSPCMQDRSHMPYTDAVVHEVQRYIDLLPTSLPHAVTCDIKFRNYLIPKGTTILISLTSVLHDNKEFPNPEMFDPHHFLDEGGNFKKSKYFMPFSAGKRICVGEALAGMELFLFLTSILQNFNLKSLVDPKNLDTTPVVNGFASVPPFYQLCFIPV

[25] = Cytotoxicity against paclitaxel resistant human A-375/TxR cells measured after 72 hrs […]; format: functional, cell-based; conditions: A375/TxR
[26] = Induction of apoptosis in human A375/TxR cells assessed as apoptotic cells at 2.5 nM measured for 24 hrs by annexin VFITC /PI staining based analysis (reference value: […]); format: functional
[27] = system: A-375; assay: Antiproliferative activity against human A-375 cells assessed as cell growth inhibition incubated for 72 hrs by MTS assay; format: functional, cell-based; conditions: A-375, 72 h
[28] = Cmax in NSG mouse at 10 mg/kg, ip; format: ADME, organism-based; set-up: route intraperitoneal, dose 10 mg/kg; conditions: in vivo
[29] = Apparent volume of distribution during terminal phase in NSG mouse at 10 mg/kg, ip; format: ADME, organism-based; conditions: in vivo, read-out: Vz/F
[30] = Metabolic stability in mouse liver microsomes assessed as half life in presence of NADPH regenerating system by UPLC-MS analysis; format: ADME, Microsome; conditions: microsomes
[31] = species: Sus scrofa; assay: Inhibition of porcine brain tubulin polymerization assessed as inhibition of microtubule polymerization at 10 uM measured for 1 hrs by microplate reader method
[32] = system: Salmonella typhimurium; assay: Mutagenicity in Salmonella typhimurium […] by Ames test; format: toxicity, organism-based; conditions: salmonella enterica subsp. enterica serovar typhimurium
[33] = system: M14; assay: Cytotoxicity against human M14 cells measured after 72 hrs […]; format: functional, cell-based; conditions: M14, 72 h
[34] = system: Salmonella typhimurium; assay: Mutagenicity in Salmonella typhimurium TA1535 by Ames test; format: toxicity, organism-based; conditions: salmonella enterica subsp. enterica serovar typhimurium
[35] = Induction of cell cycle arrest in human A375/TxR cells assessed as accumulation at G2/M phase at 10 nM measured for 24 hrs by PI staining based flow cytometry analysis
[36] = system: A375/TxR; assay: Antitumor activity against human A375/TxR cells xenografted in SCID mouse assessed as tumor necrosis at 10 to 20 mg/kg, ip by H and E staining based analysis; format: functional, organism-based; conditions: dose 10-20 mg/kg
[37] = Systemic toxicity in human A375/TxR cells xenografted in SCID mouse tumor model assessed as pathological change in liver at 10 to 20 mg/kg, ip by H and E staining based analysis; format: organism-based; conditions: in vivo, dose 10-20 mg/kg

COc1cc(C(=O)c2nc(-c3ccc(C)c(O)c3)ccc2F)cc(OC)c1OC
inhibition at 10 µM [1]: 50.9% | Activity [2]: Dose-Dependent Effect | inhibition at 10 µM [3]: 51.8% | Activity [4]: 57.6% | Activity [5]: Dose-Dependent Effect | Activity [6]: Non-Toxic | Activity [7]: Non-Toxic | CLint scaled [8]: 4.6 mL/min/kg | t1/2 [9]: 29.4 min | AUClast [10]: 4872.07 h/ng/mL | Activity [11]: Dose-Dependent Effect | IC50 [12]: 1.9 nM | IC50 [13]: 5.8 nM | CL/F [14]: 34.1 mL/min/kg | Activity [15]: Non-Toxic | CLint scaled [16]: 42.3 mL/min/kg | Activity [17]: 95% | Activity [18]: 45.4% | IC50 [19]: 4.9 nM | Tmax [20]: 10.2 min | IC50 [21]: 1.4 nM | Activity [22]: Dose-Dependent Effect | IC50 [23]: 2.4 nM | inhibition at 10 µM [24]: 54.7% | IC50 [25]: 5.3 nM | Activity [26]: 14.5% | IC50 [27]: 1.8 nM | Cmax [28]: 6210 ng/mL | Vd/F [29]: 12.3 L/kg | t1/2 [30]: > 240 min | inhibition [31]: Active | Activity [32]: Non-Toxic | IC50 [33]: 2.8 nM | Activity [34]: Non-Toxic | Activity [35]: 62% | Activity [36]: Active | Activity [37]: Non-Toxic
